Measurements reported in ChEMBL document CHEMBL1150878, “Novel cytotoxic diterpenes, excavatolides A-E, isolated from the Formosan gorgonian Briareum excavatum” (1998).
≈ marks a conversion by molar mass, not a printed value.

Legend:
Type in all cases: functional
Settings in all cases: read-out: ED50 (the source's name)
[1] = test system: P388; assay: Cytotoxicity against mouse P388 cells by MTT assay
[2] = test system: KB; assay: Cytotoxicity against human KB cells by MTT assay
[3] = test system: A549; assay: Cytotoxicity against human A549 cells by MTT assay
[4] = test system: HT-29; assay: Cytotoxicity against human HT-29 cells by MTT assay

CC(=O)O[C@H]1C[C@H](OC(C)=O)[C@@]2(C)[C@H]([C@H]1C)[C@]1(O)[C@@]2(OC(C)=O)CC/C(C)=C\[C@@H]2OC(=O)[C@@]3(C)O[C@@]213
EC50 [1]: 5.8 µg/mL (≈ 11.5 µM)
EC50 [2]: > 50 µg/mL
EC50 [3]: 37.2 µg/mL (≈ 73.4 µM)
EC50 [4]: 4.4 µg/mL (≈ 8.69 µM)

C=C1[C@H]2O[C@H]2[C@@]2(O)[C@@]3(C)[C@H]4O[C@H]4[C@H](OC(C)=O)[C@H](C)[C@@H]3[C@@]2(OC(C)=O)[C@]2(O)[C@@H](C)C(=O)O[C@H]2[C@H]1Cl [BRIANOLIDE]
EC50 [1]: > 50 µg/mL
EC50 [2]: > 50 µg/mL
EC50 [3]: > 50 µg/mL
EC50 [4]: > 50 µg/mL

C=C1[C@@H]2C[C@@]3(OC(C)=O)[C@@]4(C)[C@@H](OC(C)=O)CC=C(C)[C@@H]4[C@@]3(O)[C@]3(O2)[C@@H](C)C(=O)O[C@H]3[C@H]1Cl [EXCAVATOLIDE A]
EC50 [1]: > 50 µg/mL
EC50 [2]: 2.5 µg/mL (≈ 5.2 µM)
EC50 [3]: 21.9 µg/mL (≈ 45.5 µM)
EC50 [4]: > 50 µg/mL

CCCC(=O)O[C@H]1C/C(C)=C\[C@@H]2OC(=O)[C@@]3(C)O[C@]23[C@]2(OC(C)=O)[C@H]3[C@@H](C)[C@@H](O)C[C@H](OC(C)=O)[C@]3(C)[C@]12OC(C)=O [EXCAVATOLIDE B]
EC50 [1]: > 50 µg/mL
EC50 [2]: > 50 µg/mL
EC50 [3]: > 50 µg/mL
EC50 [4]: > 50 µg/mL

CC(=O)O[C@H]1C[C@H](O)[C@H](C)[C@H]2[C@@]1(C)[C@]1(OC(C)=O)[C@@H](OC(C)=O)C/C(C)=C\[C@@H]3OC(=O)[C@@]4(C)O[C@]34[C@]21OC(C)=O [EXCAVATOLIDE C]
EC50 [1]: 0.3 µg/mL (≈ 0.531 µM)
EC50 [2]: 1.9 µg/mL (≈ 3.37 µM)
EC50 [3]: 1.9 µg/mL (≈ 3.37 µM)
EC50 [4]: 1.9 µg/mL (≈ 3.37 µM)

CC(=O)O[C@H]1C[C@H](O)[C@H](C)[C@H]2[C@@]1(C)[C@]1(O)[C@@H](OC(C)=O)C/C(C)=C\[C@@H]3OC(=O)[C@@]4(C)O[C@]34[C@]21OC(C)=O [EXCAVATOLIDE D]
EC50 [1]: 1.8 µg/mL (≈ 3.44 µM)
EC50 [2]: 4.2 µg/mL (≈ 8.04 µM)
EC50 [3]: > 50 µg/mL
EC50 [4]: 1.3 µg/mL (≈ 2.49 µM)

CC(=O)O[C@H]1C[C@H](O)[C@H](C)[C@H]2[C@@]1(C)[C@]1(OC(C)=O)CC/C(C)=C\[C@@H]3OC(=O)[C@@]4(C)O[C@]34[C@]21O [EXCAVATOLIDE E]
EC50 [1]: 1.6 µg/mL (≈ 3.44 µM)
EC50 [2]: 0.8 µg/mL (≈ 1.72 µM)
EC50 [3]: 1.2 µg/mL (≈ 2.58 µM)
EC50 [4]: 1.6 µg/mL (≈ 3.44 µM)
